According to US10899754B2, “Modulators of indoleamine 2,3-dioxygenase” (GLAXOSMITHKLINE INTELLECTUAL PROPERTY DEVELOPMENT LIMITED, priority 2016, dated 2021):
Read-outs that look alike come from different tables or passages of the source.

Columns and labels:
[1] = biological target: T1, indoleamine 2, 3-dioxygenase (IDO1) (Homo sapiens, UniProt P14902); assay: IDO1 PBMC RapidFire MS assay (kynurenine detection by mass spectrometry); format: cell-based; parameters: to induce the expression of indoleamine 2, 3-dioxygenase (IDO1); host or cells: human PBMC stimulated with IFN-gamma and LPS; settings: human PBMC stimulated with IFN-γ and LPS, 2 days; for IC50: pIC50, read-out: PBMC PXC50 (converted)
T1 sequence (P14902 whole entry): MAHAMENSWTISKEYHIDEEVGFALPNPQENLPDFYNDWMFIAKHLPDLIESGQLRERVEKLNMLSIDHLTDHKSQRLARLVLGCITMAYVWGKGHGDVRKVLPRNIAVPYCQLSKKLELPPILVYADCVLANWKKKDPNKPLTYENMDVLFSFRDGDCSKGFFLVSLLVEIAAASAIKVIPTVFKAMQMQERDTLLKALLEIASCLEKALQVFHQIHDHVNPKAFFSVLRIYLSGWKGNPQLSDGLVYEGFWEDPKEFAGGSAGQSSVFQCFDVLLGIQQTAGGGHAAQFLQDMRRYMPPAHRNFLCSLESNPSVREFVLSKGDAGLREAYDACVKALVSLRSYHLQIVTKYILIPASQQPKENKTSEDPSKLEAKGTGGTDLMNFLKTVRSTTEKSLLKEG
Outline: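 PBMCs (50,000 cells/well) stimulated with IFN-γ 100 ng/ml plus LPS 50 ng/ml, treated with 11-point 3-fold compound series for 2 days at 37° C. Supernatant kynurenine measured by RapidFire MS, normalised to internal standard; parallel cytotoxicity by CellTiter-Glo luminescence; curves fitted for XC50.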

[2] = tested on: human peripheral blood mononuclear cells (PBMC); assay: PBMC cytotoxicity assay (CellTiter-Glo); format: cell-based; settings: 2 days, pCC50
Outline: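 Human PBMC (50,000 cells/well) stimulated with IFN-γ 100 ng/ml and LPS 50 ng/ml were exposed to 11-point 3-fold compound dilutions for 2 days at 37 °C, 5% CO2. Viability read by CellTiter-Glo ATP luminescence and normalized to no-cell and stimulated-DMSO controls. XC50 derived by four-parameter fit.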

[3] = biological target: T2, ePL tagged IDO1 (Homo sapiens, UniProt P14902); assay: CETSA (Cellular Thermal Shifting assay) in Hela cells; format: binding; settings: BacMam ePL tagged IDO1, 3 hours at 37° C., heated at 53° C. for 3 min
T2 construct: expressed in transfected cells; host or cells: HeLa cells transduced with BacMam virus
T2 sequence (P14902 whole entry): as above
Experimental: Cellular Thermal Shifting assays were used to directly monitor the ligand binding to target proteins in cells. Hela cells were transduced with BacMam virus expressing ePL tagged IDO1 overnight. The cells were then plated over the compounds for 3 hours at 37° C. in cell culture medium containing 1% FBS. The plates were then sealed and heated at 53° C. for 3 min. InCell Hunter reagents were added and luminescence was read in 90 min.

[4] = tested on: human epithelial HeLa cells; assay: HeLa cytotoxicity assay (CellTiter-Glo); format: cell-based; settings: pCC50
Outline: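 HeLa cells (5,000/well) stimulated with 10 nM IFN-γ, exposed to 11-point 3-fold compound dilutions for 2 days at 37 °C; viability by CellTiter-Glo ATP luminescence. Normalized to cell-free (100% cytotoxicity) and stimulated-cell DMSO (0%) controls; four-parameter fit gives pCC50.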

[5] = biological target: T1, indoleamine 2, 3-dioxygenase (IDO1); assay: IDO1 HeLa RapidFire MS assay (kynurenine detection by mass spectrometry); format: cell-based; parameters: to induce the expression of indoleamine 2, 3-dioxygenase (IDO1); settings: HeLa cells, pIC50, read-out: IDO1_HELA_PXC50 (converted)
Outline: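 Compound potency reported as pIC50 from kynurenine/internal-standard ratio (RapidFire MS) in supernatant of IFN-γ-induced (10 nM) HeLa cells, 5,000 per well, after 2 days' treatment with 11-point dilutions. Cytotoxicity in the same format by luminescent ATP detection, reported as pCC50.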

[6] = tested on: naive CD4+CD25- T cells; settings: co-culture with DCs; cited from earlier work
[7] = tested on: PAN02 pancreatic cells; settings: orally dosed, cited from earlier work

| Compound | IC50 [1] | EC50 ([3]; read-out: pXC50_1 (converted)) | EC50 ([3]; read-out: pXC50_2 (converted)) | PBMC TOX PXC50 [2] | other results |
| --- | --- | --- | --- | --- | --- |
| CC(C)CN(CC(C)C)c1ccc(C2(CC(=O)O)CC2)cc1Nc1nc(C(F)(F)F)ns1 [Example 110, 2-(1-(4-(diisobutylamino)-3-((3-(trifluoromethyl)-1,2,4-thiadiazol-5-yl)amino)phenyl)cyclopropyl)acetic Acid] | – | – | – | 5.2 | PBMC PXC50 ([1]; pIC50): 8.5; pXC50_1 [3]: 6.89; pXC50_2 [3]: 6.86 |
| CC(C)CN(c1ccc([C@H](C)CC(=O)O)cc1Nc1ccc(C#N)cn1)C1CCOCC1 [Example 16, (R)-3-(3-((5-cyanopyridin-2-yl)amino)-4-(isobutyl(tetrahydro-2H-pyran-4-yl)amino)phenyl)butanoic Acid] | 1.58 nM | 257 nM | 316 nM | <5 | – |
| CC(C)CN(c1ccc([C@H](C)CC(=O)O)cc1Nc1ccc(Cl)nc1)C1CCOCC1 [Example 6, (R)-3-(3-((6-chloropyridin-3-yl)amino)-4-(isobutyl(tetrahydro-2H-pyran-4-yl)amino)phenyl)butanoic Acid] | 0.631 nM | 13.8 nM | 20.9 nM | <5 | – |
| NS(=O)(=O)NCCNc1nonc1C(=NO)Nc1ccc(F)c(Br)c1 [INCB204360, epacadostat] | – | – | – | – | Conversion of naive CD4+CD25- T cells into CD4+FoxP3+ Tregs [6]: blocked the conversion; Inhibition of tumor growth ([7]; PAN02 pancreatic cells, immunocompetent mice): significant dose-dependent inhibition of tumor growth; Effect against tumor ([7]; same tumor (PAN02) implanted in immune-deficient mice): without effect |

Continued, in another order:

| IC50 [1] | EC50 ([3]; read-out: pXC50_1 (converted)) | EC50 ([3]; read-out: pXC50_2 (converted)) | Compound | PBMC TOX PXC50 [2] | other results |
| --- | --- | --- | --- | --- | --- |
| 1.58 nM | 1.7 nM | – | CO[C@H]1CC[C@@H](N(CC(C)C)c2ccc([C@H](C)CC(=O)O)cc2Nc2nc(C(F)(F)F)n[nH]2)CC1 [Example 51] | <5 | – |
| – | > 100000 nM | – | CC(C)CN(c1ccc(-c2ccccc2C(=O)NCCCCCN)cc1Nc1nc(C(F)(F)F)ns1)C1CCCCC1 [example 283, N-(5-aminopentyl)-4′-[cyclohexyl(2-methylpropyl)amino]-3′-{[3-(trifluoromethyl)-1,2,4-thiadiazol-5-yl]amino}-[1,1′-biphenyl]-2-carboxamide] | – | HELA_IDO1_TOX_PXC50 [4]: <5; IC50 [5]: 5010 nM |
| 1 nM | 112 nM | 191 nM | CC(C)CN(c1ccc([C@H](C)CC(=O)O)cc1Nc1ccc(Cl)nn1)C1CCOCC1 [Example 11, (R)-3-(3-((6-chloropyridazin-3-yl)amino)-4-(isobutyl(tetrahydro-2H-pyran-4-yl)amino)phenyl)butanoic Acid] | <5 | – |
